# Data from ChEMBL document CHEMBL5584313, “Design and Synthesis of 7-Oxabicyclo[2.2.1]heptane-2,3-dicarboxylic Acid Derivatives as PP5 Inhibitors To Reverse Temozolomide Resistance in Glioblastoma Multiforme” (J Med Chem, 2024).
# pIC50: −log10 of the molar value. The source made the active and inactive calls. No cut-off for these calls is given here. Starred links: 1 amine or outer side, 2 acyl side, 3 side chain; linkers in the order of their positions; H or OH if unused. Positions of bridges follow the written chain, without caps; N, C: chain ends. Non-standard residues stand in square brackets, D forms with d. Residues, ends and D or L forms follow the SMILES beside them. Adda = CO[C@@H](Cc1ccccc1)[C@@H](C)/C=C(C)/C=C/[C@H](N[*:1])[C@H](C)C(=O)[*:2]; dAsp(3S-Me) = C[C@H](C(=O)[*:3])[C@@H](N[*:1])C(=O)[*:2]; d(γGlu) = O=C(O)[C@@H](CCC(=O)[*:2])N[*:1]; NMeDha = C=C(NC)C(=O)O
# Legend:
# [1] = Aqueous stability of compound assessed as compound remaining measured at 240 mins by HPLC assay; type: physicochemical; conditions: aqueous solution, read-out: Stability
# [2] = Aqueous stability of compound assessed as compound remaining measured at 10 mins by HPLC assay; type: physicochemical; conditions: aqueous solution, read-out: Stability
# [3] = Aqueous stability of compound assessed as compound remaining measured at 30 mins by HPLC assay; type: physicochemical; conditions: aqueous solution, read-out: Stability
# [4] = Aqueous stability of compound assessed as compound remaining measured at 60 mins by HPLC assay; type: physicochemical; conditions: aqueous solution, read-out: Stability
# [5] = Aqueous stability of compound assessed as compound remaining measured at 120 mins by HPLC assay; type: physicochemical; conditions: aqueous solution, read-out: Stability
# [6] = Aqueous stability of compound assessed as compound remaining measured at 480 mins by HPLC assay; type: physicochemical; conditions: aqueous solution, read-out: Stability
# [7] = Stability in mouse plasma assessed as half life measured upto 300 mins by LC-MS/MS analysis; type: ADME, cell-free
# [8] = Inhibition of PP2A in human U-87 MG cell lysate using RRA(pT)VA as substrate; type: subcellular
# Homo sapiens [9] = species on record: Homo sapiens; assay: Selectivity ratio of IC50 for PP1 (unknown origin ) to IC50 for PP5 (unknown origin)
# Homo sapiens [10] = species on record: Homo sapiens; assay: Selectivity ratio of IC50 for PP2A (unknown origin ) to IC50 for PP5 (unknown origin)
# U-87 MG [11] = assay: Cytotoxicity against human U-87 MG cells incubated for 48 hrs by CCK8 assay; type: functional, cell-based, U-87MG ATCC
# HCT-116 = assay: Cytotoxicity against human HCT-116 cells incubated for 48 hrs by CCK8 assay; type: functional, cell-based; conditions: HCT-116, 48 h
# A549 = assay: Cytotoxicity against human A549 cells incubated for 48 hrs by CCK8 assay; type: functional, cell-based; conditions: A549, 48 h
# [12] = Cytotoxicity against HEK293T cells incubated for 48 hrs by CCK8 assay; type: toxicity, cell-based, HEK-293T; conditions: human
# [13] = Cytotoxicity against HUVECs incubated for 48 hrs by CCK8 assay; type: toxicity, cell-based; conditions: human, HUVEC cells
# [14] = Cytotoxicity against human BEAS-2B incubated for 48 hrs by CCK8 assay; type: toxicity, cell-based; conditions: BEAS-2B cells
# U-87 MG [15] = assay: Induction of apoptosis in human U-87 MG cells assessed as G0/G1 phase cells at 5 uM incubated for 24 hrs by propidium iodide staining based flow cytometry analysis (reference value: 58.8%); type: functional, U-87MG ATCC
# U-87 MG [16] = assay: Induction of apoptosis in human U-87 MG cells assessed as S phase cells at 5 uM incubated for 24 hrs by propidium iodide staining based flow cytometry analysis (reference value: 29.4%); type: functional, U-87MG ATCC
# U-87 MG [17] = assay: Induction of apoptosis in human U-87 MG cells assessed as G2/M phase cells at 5 uM incubated for 24 hrs by propidium iodide staining based flow cytometry analysis (reference value: 11.9%); type: functional, U-87MG ATCC
# U-87 MG [18] = assay: Induction of apoptosis in human U-87 MG cells assessed as G0/G1 phase cells at 25 uM incubated for 24 hrs in presence of TMZ by propidium iodide staining based flow cytometry analysis (reference value: 58.8%); type: functional, U-87MG ATCC
# U-87 MG [19] = assay: Induction of apoptosis in human U-87 MG cells assessed as S phase cells at 25 uM incubated for 24 hrs in presence of TMZ by propidium iodide staining based flow cytometry analysis (reference value: 29.4%); type: functional, U-87MG ATCC
# U-87 MG [20] = assay: Induction of apoptosis in human U-87 MG cells assessed as G2/M phase cells at 25 uM incubated for 24 hrs in presence of TMZ by propidium iodide staining based flow cytometry analysis (reference value: 11.9%); type: functional, U-87MG ATCC
# U-87MG ATCC [21] = assay: Upregulation of p53 expression in human U-87 MG cells at 6.25 to 100 uM after 24 hrs by Western blotting analysis; type: functional, cell-based; conditions: dose 6.25-100 µM
# U-87MG ATCC [22] = assay: Downregulation of cyclin D1 expression in human U-87 MG cells at 25 uM incubated for 24 hrs in presence TMZ by Western blotting analysis; type: functional, cell-based
# [23] = Stability of compound in water assessed as remaining compound after 24 hrs; type: physicochemical; conditions: read-out: Stability
# U-87 MG [24] = assay: Antitumor activity against human U-87 MG cells xenografted in BALB/c nude mouse assessed as tumor growth inhibition at 3 mg/kg, po administered every other day for 18 days in presence of 40 mg/kg TMZ; type: functional, U-87MG ATCC; conditions: 432 h, time 18 day, read-out: TGI
# U-87 MG [25] = assay: Antitumor activity against human U-87 MG cells xenografted in BALB/c nude mouse assessed as reduction in MGMT expression at 1.5 to 3 mg/kg, po measured after 4 hrs in presence of 40 mg/kg TMZ by Western blotting analysis; type: functional, organism-based; conditions: U-87MG ATCC, dose 1.5-3 mg/kg
# [26] = Toxicity in BALB/c nude mouse xenografted with U-87 MG cells assessed as kidney damage at 3 mg/kg, po administered every other day for 18 days in presence of 40 mg/kg TMZ by H and E staining based assay; type: organism-based; conditions: in vivo, 432 h, time 18 day
# [27] = Toxicity in BALB/c nude mouse xenografted with U-87 MG cells assessed as liver damage at 3 mg/kg, po administered every other day for 18 days in presence of 40 mg/kg TMZ by H and E staining based assay; type: organism-based; conditions: in vivo, 432 h, time 18 day
# [28] = Toxicity in BALB/c nude mouse xenografted with U-87 MG cells assessed as kidney damage at 3 mg/kg, po administered every other day for 18 days by H and E staining based assay; type: organism-based; conditions: in vivo, 432 h, time 18 day
# [29] = Toxicity in BALB/c nude mouse xenografted with U-87 MG cells assessed as liver damage at 3 mg/kg, po administered every other day for 18 days by H and E staining based assay; type: organism-based; conditions: in vivo, 432 h, time 18 day
# [30] = Inhibition of bovine PP2A using [32P]-phosphohistone as substrate preincubated for 10 mins followed by substrate addition; design: species or system Bos taurus
# [31] = target: T1, Serine/threonine-protein phosphatase 5 (Homo sapiens, UniProt P53041); assay: Inhibition of human PPP5C (169 to 499 residues) expressed in Escherichia coli using [32P]-phosphohistone as substrate preincubated for 10 mins followed by substrate addition
# T1 sequence (P53041 whole entry): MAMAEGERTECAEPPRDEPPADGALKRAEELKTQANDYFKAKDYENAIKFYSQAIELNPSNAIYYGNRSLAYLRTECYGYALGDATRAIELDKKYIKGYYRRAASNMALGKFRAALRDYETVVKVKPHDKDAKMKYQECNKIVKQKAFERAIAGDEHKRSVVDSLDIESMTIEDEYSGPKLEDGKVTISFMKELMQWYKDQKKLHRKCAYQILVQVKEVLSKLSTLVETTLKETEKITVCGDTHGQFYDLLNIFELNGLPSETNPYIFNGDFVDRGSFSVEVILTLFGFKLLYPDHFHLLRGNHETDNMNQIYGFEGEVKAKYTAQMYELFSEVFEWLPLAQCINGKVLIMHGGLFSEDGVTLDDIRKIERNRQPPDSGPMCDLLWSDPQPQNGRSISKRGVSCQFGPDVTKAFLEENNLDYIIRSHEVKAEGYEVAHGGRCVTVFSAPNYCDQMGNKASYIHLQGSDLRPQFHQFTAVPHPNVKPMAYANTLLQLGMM
# [32] = Inhibition of PP2A (unknown origin)
compound,measurement,setting,value
O=C(Nc1ccccc1)[C@@H]1[C@H](C(=O)O)[C@H]2CC[C@@H]1O2,remaining at 4 h,[1],74.5%
O=C(O)[C@@H]1[C@H](C(=O)N2CCC2)[C@H]2CC[C@@H]1O2,remaining at 4 h,[1],33.8%
O=C(O)[C@H]1[C@@H](C(=O)N2Cc3ccccc3C2)[C@@H]2CC[C@H]1O2,remaining at 4 h,[1],46.4%
CN1CCN(C(=O)[C@@H]2[C@H](C(=O)O)[C@H]3CC[C@@H]2O3)CC1,remaining at 10 min,[2],93%
same,remaining at 0.5 h,[3],79%
same,remaining at 1 h,[4],68%
same,remaining at 2 h,[5],50%
same,remaining at 4 h,[1],45.6%
same,remaining at 8 h,[6],14%
same,half-life,[7],5.03 h
same,pIC50,[8],6.00
same,Ratio IC50,Homo sapiens [9],0.7
same,Ratio IC50,Homo sapiens [10],0.1
same,pIC50,U-87 MG [11],4.59
same,pIC50,HCT-116,5.00
same,pIC50,A549,5.06
same,IC50 at 48 h,[12],26.6 µM
same,IC50 at 48 h,[13],9.7 µM
same,IC50 at 48 h,[14],3.5 µM
same,Activity,U-87 MG [15],57.4%
same,Activity,U-87 MG [16],28.4%
same,Activity,U-87 MG [17],14.4%
same,Activity,U-87 MG [18],52.6%
same,Activity,U-87 MG [19],11.8%
same,Activity,U-87 MG [20],22.9%
same,Activity,U-87MG ATCC [21],inactive
same,Activity,U-87MG ATCC [22],inactive
same,remaining at 24 h,[23],5.3%
same,inhibition in vivo at 3 mg/kg,U-87 MG [24],46.2%
same,Activity,U-87 MG [25],inactive
same,Activity,[26],Toxic
same,Activity,[27],Toxic
same,Activity,[28],Toxic
same,Activity,[29],Toxic
same,pIC50,[30],8.05
same,pIC50,[31],5.52
C=C1C(=O)N[C@H](C)C(=O)N[C@@H](CC(C)C)C(=O)N[C@@H](C(=O)O)[C@H](C)C(=O)N[C@@H](CCCNC(=N)N)C(=O)N[C@@H](/C=C/C(C)=C/[C@H](C)[C@H](Cc2ccccc2)OC)[C@H](C)C(=O)N[C@@H](C(=O)O)CCC(=O)N1C [MICROCYSTIN-LR] (R[Adda][d(γGlu)][NMeDha][dA]L[dAsp(3S-Me)]-OH; lactam N-7),pIC50,[32],10.40
O=C(NC1CCCC1)[C@@H]1[C@H](C(=O)O)[C@H]2CC[C@@H]1O2,remaining at 4 h,[1],10.2%
CC1c2ccccc2CN1C(=O)[C@@H]1[C@H](C(=O)O)[C@H]2CC[C@@H]1O2 (stereo partly specified),remaining at 4 h,[1],71.8%
O=CN1CCN(C(=O)[C@@H]2[C@H](C(=O)O)[C@H]3CC[C@@H]2O3)CC1,remaining at 4 h,[1],80.3%
C[C@@]12C(=O)OC(=O)[C@]1(C)[C@H]1CC[C@@H]2O1 [CANTHARIDIN],pIC50,[32],6.80
